Assay results: patent US8791132B2, “Compounds and methods for treatment of hypertension” (Medivation Technologies, Inc., priority 2011, dated 2014)
pKi: −log10 of the molar value. “And” between values parts separate entries of the source, which are not always exact repeats. Equal entries are not always repeated. Where two headings read alike, the source gives them in different places.

What was measured:
[1] = biological target: T1, rat adrenergic α1B receptor (Rattus norvegicus, UniProt P15823); experiment: Radioligand binding, adrenergic α1B ([3H]Prazosin)
T1 construct: rat adrenergic α1B receptor obtained from Wistar Rat liver; from tissue; host or cells: Wistar rat liver
T1 sequence (P15823 1-515): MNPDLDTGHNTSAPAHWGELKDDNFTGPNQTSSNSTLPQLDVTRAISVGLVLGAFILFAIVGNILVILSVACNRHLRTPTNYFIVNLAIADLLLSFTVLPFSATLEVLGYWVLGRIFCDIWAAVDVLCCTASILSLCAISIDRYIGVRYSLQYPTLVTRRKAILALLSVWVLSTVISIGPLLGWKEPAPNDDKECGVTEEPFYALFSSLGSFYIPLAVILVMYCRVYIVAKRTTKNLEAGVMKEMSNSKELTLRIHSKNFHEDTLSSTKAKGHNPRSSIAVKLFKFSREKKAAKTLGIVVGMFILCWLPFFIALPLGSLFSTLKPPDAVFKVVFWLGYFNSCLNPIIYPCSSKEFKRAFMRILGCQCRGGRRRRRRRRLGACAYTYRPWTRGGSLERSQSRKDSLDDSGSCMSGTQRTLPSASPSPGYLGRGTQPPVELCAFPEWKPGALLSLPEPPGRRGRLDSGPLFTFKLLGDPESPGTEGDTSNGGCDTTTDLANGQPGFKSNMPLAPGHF
How it was run: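 Specific binding, taken as total minus that remaining with 10 μM phentolamine, is measured after filtration and counting. Rat liver receptor preparation and 0.25 nM [3H]prazosin are incubated with compound in 50 mM Tris-HCl (pH 7.4, 0.5 mM EDTA) at 25° C for 60 min. Activity is reported as percent inhibition.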

[2] = tested on: spontaneously hypertensive rats (SHR); experiment: Blood pressure in spontaneously hypertensive rat (SHR) model of hypertension; assay type: in vivo; conditions: for systolic blood pressure lowering effects: escalating doses 1, 3, 10 and 30 mg/kg/iv for every 30 minutes (FIGS. 20-22)
Protocol: Male spontaneously hypertensive rats (SHR), approximately 3 months of age and weighting approximately 250 grams were utilized. Free access to standard lab chow for rats and reverse osmosis (RO) water was granted. All aspects of this work, including housing, experimentation and disposal of animals were performed in general accordance with the Guide for the Care and Use of Laboratory Animals (National Academy Press, Washington, D.C., 1996).
The animals were anaesthetized with sodium pentobarbital (50 mg/kg IP). The left carotid artery when compound dosed orally (PO) or subcutaneously (SC); and both left carotid and femoral artery when compound dosed intravenous (i.v.) were cannulated with a polyethylene catheter (38 cm in length; PE60, Portex, Ltd.) connected with a polyurethane tubing (12 cm in length; PU-40, Cat. #BB520-40, Scientific Commodities, Inc.), which was tunneled under the skin and exited through the nape of the neck. The arterial cannula was connected to a pressure transducer through a swivel system, allowing free roaming during continuous recording of mean arterial pressure and heart rate. The animals were housed individually with food and water freely available during recovery. On the following day, the arterial cannula was connected via a Statham (P 23×L) pressure transducer to a NEC/San-Ei amplifier and data acquisition and analysis system (Power Lab 8/SP) for direct mean arterial pressure and heart rate measurements.
The test compounds, dissolved in sterile saline, were administered subcutaneously (SC) or orally (PO), or by intravenous (i.v.) bolus administration in two minutes or the escalating doses of compound administration in every 30 minutes, with each dose and its strength delivered over 2 minutes as shown in the respective figures; the internal standard phentolamine was given by oral gavage. The control group received vehicle alone. Immediately before (−10 min and −5 min) and at 15 min, 30 min, 1 hr, 1.5 hr, 2 hr, 2.5 hr, 3 hr, 3.5 hr, and 4 hr post-dosing, systolic pressure blood pressure values were recorded.

[3] = read-out: Percentage inhibition of ligand binding, Adrenergic α1B (0.03 μM), compound at 0.03 μM, [3H]Prazosin, repeat datapoints each shown
[4] = read-out: Percentage inhibition of ligand binding, Adrenergic α1B (0.1 μM), compound at 0.1 μM, [3H]Prazosin, repeat datapoints each shown
[5] = compound at 0.03 μM, [3H]Prazosin, repeat assays, each datapoint shown, read-out: Percentage inhibition of ligand binding, Adrenergic α1B
[6] = compound at 0.1 μM, [3H]Prazosin, repeat assays, each datapoint shown, read-out: Percentage inhibition of ligand binding, Adrenergic α1B
[7] = compound at 0.1 μM, [3H]Prazosin, repeat assays, each datapoint shown, 0.1 µM
[8] = compound at 0.1 μM, [3H]Prazosin, repeat datapoints each shown, 0.1 µM

| inhibition at 0.03 µM [1, 3] | inhibition at 0.1 µM [1, 4] | Percentage inhibition of ligand binding, Adrenergic α1B (0.1 μM) [1, 8] | SMILES | also measured |
| --- | --- | --- | --- | --- |
| 50% | 71% |  | Cc1ccc(C(O)Cn2c3c(c4cc(C)ccc42)CN(C)CC3)cc1 (racemic) [compound 183, racemic-2-(1,2,3,4-tetrahydro-2,8-dimethylpyrido[4,3-b]indol-5-yl)-1-p-tolylethanol] |  |
|  |  |  | Cc1ccc2c(c1)c1c(n2CC(O)c2ccncc2)CCN(C)CC1 (single isomer, unassigned) [13b, 2-(3,9-dimethyl-2,3,4,5-tetrahydroazepino[4,5-b]indol-6(1H)-yl)-1-(pyridin-4-yl)ethanol] | inhibition at 0.03 µM [1, 5]: 68%; inhibition at 0.1 µM [1, 6]: 91%; systolic blood pressure ([2]; SC or PO, 4 hour study period (FIGS. 7-10)): lowered systolic blood pressure |
|  |  |  | Cc1cnc2c(c1)c1c(n2CC(C)(O)c2cccnc2)CCN2CCCC12 (single isomer, unassigned) [26a] | inhibition at 0.03 µM [1, 5]: 32%; Percentage inhibition of ligand binding, Adrenergic α1B [1, 7]: 52% and 61%; systolic blood pressure lowering effects [2]: robust |
|  |  |  | Cc1ccc2c(c1)c1c(n2CC(N)c2ccncc2)CCN(C)C1 (single isomer, unassigned) [27a, 2-(1,2,3,4-tetrahydro-2,8-dimethylpyrido[4,3-b]indol-5-yl)-1-(pyridin-4-yl)ethanamine] | inhibition at 0.03 µM [1, 5]: 34%; Percentage inhibition of ligand binding, Adrenergic α1B [1, 7]: 59% and 64%; systolic blood pressure lowering effects [2]: robust; heart rate ([2]; when systolic blood pressure falls (data not shown)): neutral effect on heart rate |
|  |  |  | Cc1cnc2c(c1)c1c(n2CCc2ccc(C)nc2)CCN2CCCC12 (single isomer, unassigned) [74a, 10-methyl-7-(2-(6-methylpyridin-3-yl)ethyl)-2,3,5,6,7,11c-hexahydro-1H-pyrido[3′,2′:4,5]pyrrolo[2,3-g]indolizine] | pKi [1]: 8.33; inhibition at 0.03 µM [1, 5]: 81%; Percentage inhibition of ligand binding, Adrenergic α1B [1, 7]: 96%; inhibition at 0.1 µM [1, 6]: 91% |
|  | 25% | 36% | Cc1cnc2c(c1)c1c(n2CCc2ccc(C)nc2)CCN(C)C1 [II-110, 3,6-dimethyl-9-(2-(6-methylpyridin-3-yl)ethyl)-6,7,8,9-tetrahydro-5H-pyrrolo[2,3-b:4,5-c′]dipyridine] |  |
|  |  |  | Cc1ccc2c(c1)c1c(n2CC(C)(O)c2cccnc2)CCN(C)C1 (stereo not shown) [compound 5, 1-(1,2,3,4-tetrahydro-2,8-dimethylpyrido[4,3-b]indol-5-yl)-2-(pyridin-3-yl)propan-2-ol] | Percentage inhibition of ligand binding, Adrenergic α1B [1, 7]: 21%; inhibition at 0.1 µM [1, 6]: 14% |
|  |  |  | Cc1ccc2c(c1)c1c(n2CCc2cccnc2)CCN(C)C1 [compound 61] | inhibition at 0.03 µM [1, 5]: 28%; inhibition at 0.1 µM [1, 6]: 60% |
|  |  |  | Cc1ccc2c(c1)c1c(n2CC2(c3ccccc3)OCCO2)CCN(C)C1 [compound 83] | Percentage inhibition of ligand binding, Adrenergic α1B [1, 7]: 15%; inhibition at 0.1 µM [1, 6]: 9% |
|  |  |  | CCN1CCc2c(c3cc(C)ccc3n2CCc2ccncc2)C1 [compound 85] | inhibition at 0.03 µM [1, 5]: -3%; inhibition at 0.1 µM [1, 6]: 26% |
| 32% | 58% |  | Cc1ccc2c(c1)c1c(n2CCc2ccc(CO)nc2)CCN(C)C1 [compound 91] | Percentage inhibition of ligand binding, Adrenergic α1B ([1]; compound at 0.03 μM, [3H]Prazosin, repeat assays, each datapoint shown, 0.03 µM): 28%; inhibition at 0.03 µM [1, 5]: 25%; Percentage inhibition of ligand binding, Adrenergic α1B [1, 7]: 53%; inhibition at 0.1 µM [1, 6]: 52% |
|  | 81% | 83% | Cc1ccc2c(c1)c1c(n2CC(C)(O)c2ccc(O)cc2)CCN(C)C1 (stereo not shown) [compound 98] |  |
|  | 61% | 79% | C/C(=C\n1c2c(c3cc(C)ccc31)CN(C)CC2)c1ccncn1 [compound 101] |  |
|  | 15% |  | Cc1ccc2c(c1)c1c(n2C2=C(c3ccncc3)CCC2)CCN(C)C1 [compound 114] |  |
| 4% | 21% | 22% | Cc1ccc2c(c1)c1c(n2CNc2ccccn2)CCN(C)C1 [compound 120, (2,8-dimethyl-1,2,3,4-tetrahydro-pyrido[4,3-b]indol-5-ylmethyl)-pyridin-2-yl-amine] |  |
| 70% | 87% |  | Cc1ccc(CCn2c3c(c4cc(C)ccc42)CN(C)CC3)cc1 [compound 180, 2,3,4,5-tetrahydro-2,8-dimethyl-5-(4-methylphenethyl)-1H-pyrido[4,3-b]indole] |  |
| -4% | 30% |  | Cc1ccc(CCn2c3c(c4ccccc42)CN(C)CC3)cc1 [compound 181, 2,3,4,5-Tetrahydro-2-methyl-5-(4-methylphenethyl)-1H-pyrido[4,3-b]indole] |  |
| 13% | 29% |  | CN1CCc2c(c3ccccc3n2CCc2ccccc2)C1 [compound 182, 2,3,4,5-Tetrahydro-2-methyl-5-phenethyl-1H-pyrido[4,3-b]indole] |  |
| 63% | 86% |  | C/C(=C\n1c2c(c3cc(Cl)ccc31)CN(C)CC2)c1ccncc1 [compound 185, 8-chloro-2,3,4,5-tetrahydro-2-methyl-5-((E)-2-(pyridin-4-yl)prop-1-enyl)-1H-pyrido[4,3-b]indole] |  |
| 24% | 53% | 55% | C/C(=C\n1c2c(c3cc(C)ccc31)CN(C)CC2)c1ccc(C)nc1 [compound 186] |  |
|  | 71% |  | C/C(=C\n1c2c(c3cc(C)ccc31)CN(C)CC2)c1cnc(N(C)C)nc1 [compound 187] |  |
| 26% |  | 31% and 55% | C/C(=C\n1c2c(c3cc(C)ccc31)CN(C)CC2)c1sccc1C [compound 189] |  |
| 9% | 14% | 15% | Cc1ccc2c(c1)c1c(n2C2=C(c3ccc(C)s3)CCC2)CCN(C)C1 [compound 190, 2,8-dimethyl-5-(2-(5-methylthiophen-2-yl)cyclopent-1-enyl)-2,3,4,5-tetrahydro-1H-pyrido[4,3-b]indole] |  |
| 2% | 10% | 20% | Cc1ccc2c(c1)c1c(n2C2=C(c3ccc4c(ccn4C)c3)CCC2)CCN(C)C1 [compound 191, 2,8-dimethyl-5-(2-(1-methyl-1H-indol-5-yl)cyclopent-1-enyl)-2,3,4,5-tetrahydro-1H-pyrido[4,3-b]indole] |  |
| 22% | 50% |  | CCN1CCc2c(c3cc(C)ccc3n2CCc2ccccc2)C1 [compound 201] |  |
| 29% | 52% |  | CCN1CCc2c(c3cc(C)ccc3n2CCc2ccc(C)cc2)C1 [compound 202] |  |
| 37% |  | 71% | CCN1CCc2c(c3cc(C)ccc3n2CC(O)c2ccc(C)cc2)C1 (stereo not shown) [compound 203] |  |
| 34% | 65% |  | CN1CCc2c(c3cccc(Cl)c3n2CCc2ccccc2)C1 [compound 216] | Percentage inhibition of ligand binding, Adrenergic α1B (0.03 μM) ([1]; compound at 0.03 μM, [3H]Prazosin, repeat datapoints each shown, 0.03 µM): 47% |
|  | 74% | 75% | COc1ccc(/C(C)=C/n2c3c(c4cc(Cl)ccc42)CCN(C)CC3)cc1F [compound 240] |  |
|  | 81% | 82% | COc1ccc(/C(C)=C/n2c3c(c4cc(C)ccc42)CCN(C)CC3)cc1F [compound 241] |  |
